In patent US20180344690A1, “Methods and Formulation for Enhancing Response to Radiotherapy” (The Board of Trustees of the Leland Stanford Junior …, priority 2017, published 2018):
Where two headings read alike, the source gives them in different places.

Experiments:
[1] = test system: human serum albumin and 1-acid glycoprotein; conditions: cited from earlier work
[2] = cited from earlier work; for mean AUC from time 0 to 24 hours postdose, higher than in subjects with normal renal function: single 240 μg/kg SC
AML and MDS = conditions: cited from earlier work
[3] = cited from earlier work
CXCR4 = CXCR4 (Homo sapiens, UniProt P61073); conditions: cited from earlier work
Sequence of CXCR4 (P61073 whole entry): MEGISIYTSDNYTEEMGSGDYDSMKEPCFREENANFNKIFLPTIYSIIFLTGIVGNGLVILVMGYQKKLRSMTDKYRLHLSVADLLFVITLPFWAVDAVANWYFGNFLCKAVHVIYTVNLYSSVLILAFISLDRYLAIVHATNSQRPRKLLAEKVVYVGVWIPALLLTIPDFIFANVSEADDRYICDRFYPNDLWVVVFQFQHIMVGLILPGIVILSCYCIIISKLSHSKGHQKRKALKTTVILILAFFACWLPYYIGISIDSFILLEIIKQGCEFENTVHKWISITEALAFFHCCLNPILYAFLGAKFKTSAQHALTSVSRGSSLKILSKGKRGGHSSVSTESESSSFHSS

Experimental for glioblastoma: Normalized relative cerebral blood volume (rCBV) ratios were calculated by the mean rCBV within the 95% isodose radiation field one month post-radiation as compared to contralateral white matter outside of the radiation field.

**Q.** What does the source list for `c1cc(CN2CCCNCCNCCCNCC2)ccc1CN1CCCNCCNCCCNCC1` [Plerixafor]?
**A.** rate of out of field recurrence (glioblastoma; as of Feb. 7, 2017, expected 20%, p<0.03, Fisher's exact test): 77%; rCBV measured by DSC-MRI within the 95% isodose field (glioblastoma; one month after radiation therapy, patients receiving Plerixafor compared to control, p<0.02): significant reduction; rCBV out of the radiation field (glioblastoma; one-month post radiation therapy, Plerixafor compared to control patients): similar; protein binding [1]: extensively protein bound; effect of renal impairment on maximal plasma concentrations ([2]; human, in vivo): no effect; mean AUC from time 0 to 24 hours postdose, higher than in subjects with normal renal function ([2]; mild renal impairment): 7%; mean AUC from time 0 to 24 hours postdose, higher than in subjects with normal renal function ([2]; moderate renal impairment): 32%; mean AUC from time 0 to 24 hours postdose, higher than in subjects with normal renal function ([2]; severe renal impairment): 39%; safety profile ([2]; subjects with renal impairment vs controls): similar; Plerixafor clearance ([2]; subjects with renal impairment, positively correlated with creatinine clearance): reduced; early death due to complications from intracranial hemorrhage (AML and MDS; 1 patient): 4%; treatment failure due to persistent disease (AML and MDS; 1 patient): 4%; Grade I-II GVHD (AML and MDS; 10/27 patients): 37%; treatment failure due to relapsed disease (AML and MDS; 10 patients): 37%; patients with common grade 3 adverse events (AML and MDS; 24/27, neutropenic fever, infections, or rash): 89%; Median progression-free survival (PFS) (AML and MDS; all patients, 95% CI: 18.1-33.9 wks): 26.6 wks; Grade III-IV GVHD (AML and MDS; human, in vivo, iv): no occurrences; toxicities ascribed to the G-CSF/Plerixafor component of the regimen (AML and MDS; human, in vivo): no toxicities ascribed; patients achieving a CR (AML and MDS; of the 19 patients with active disease at study entry): 18; platelet recovery (plt >20 k/mm3), median (AML and MDS; range 9-74 d): 12 days; neutrophil recovery (ANC >500/mm3), median (AML and MDS; range 10-19): 12.5 days; Median progression-free survival (PFS) (AML and MDS; relapsed patients, 95% CI: 12.1-26.6 wks): 15.7 wks; MTD ([3]; animals, adverse neurologic effects): approximately 70 mg/m^2; dose limiting toxicities (DLTs) ([3]; including severe dyspnea, tremors, ventral recumbency, convulsions at higher dosages): primarily adverse neurologic events; inhibition of the binding of SDF-1a (CXCL12) to CXCR4 (CXCR4): reversible inhibitor
